Experimental data as given in patent US9777005B2 (Takeda Pharmaceutical Company Limited, priority 2012, dated 2017).

Biological target: T1, human M1 receptor (hCHRM1) (Homo sapiens, UniProt P11229)
T1 construct: expressed in transfected cells; host or cells: CHO-K1
T1 sequence (P11229 1-460): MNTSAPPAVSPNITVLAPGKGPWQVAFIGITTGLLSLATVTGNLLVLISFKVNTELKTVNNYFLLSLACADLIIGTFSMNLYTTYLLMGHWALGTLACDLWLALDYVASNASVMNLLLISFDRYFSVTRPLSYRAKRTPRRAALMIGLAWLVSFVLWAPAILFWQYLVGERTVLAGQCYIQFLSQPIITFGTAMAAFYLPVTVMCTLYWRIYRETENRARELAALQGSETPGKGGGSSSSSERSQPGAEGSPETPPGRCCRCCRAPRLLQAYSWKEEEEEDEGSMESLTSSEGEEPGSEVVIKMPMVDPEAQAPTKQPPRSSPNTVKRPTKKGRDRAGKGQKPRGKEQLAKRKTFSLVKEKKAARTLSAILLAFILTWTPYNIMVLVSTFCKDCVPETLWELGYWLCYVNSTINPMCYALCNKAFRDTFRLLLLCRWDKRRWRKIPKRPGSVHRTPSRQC
Assay: Measurement of M1 receptor positive allosteric modulator (M1PAM) activity, calcium fluorescence (FLIPRtetra) in CHO-K1 cells in the presence of acetylcholine at EC20
Type: cell-based
Settings: in the presence of acetylcholine at EC20 (final 0.6 nM), CHO-K1 cells expressing hCHRM1; for EC50: inflection point of M1PAM activity, read-out: IP value; for activity (%) at 10 μM: test compound 10 μM
Procedure, shortened: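 PAM activity was measured as calcium flux by FLIPRtetra over 1 min after co-addition of compound and EC20 acetylcholine (final 0.6 nM) to Fluo-4-loaded hCHRM1 CHO-K1 cells. The response was scaled between DMSO (0%) and 1 μM acetylcholine (100%), and the inflection point of the concentration curve gives the IP value.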

Structure (SMILES) | EC50 [nM] | activity (%) at 10 μM [%]
Cn1cc(-c2ccc(CN3Cc4ccnc(OC5CCC5)c4C3=O)cc2)cn1 [Example 348, 4-(cyclobutyloxy)-2-(4-(1-methyl-1H-pyrazol-4-yl)benzyl)-1,2-dihydro-3H-pyrrolo[3,4-c]pyridin-3-one] | 74 | 97
Cc1cc(-c2ccc(CN3Cc4cccc(OCC5CCCO5)c4C3=O)cc2)ccn1.Cl (stereo not drawn) [Example 353, 2-(4-(2-methylpyridin-4-yl)benzyl)-7-((tetrahydrofuran-2-yl)methoxy)isoindolin-1-one hydrochloride] | 46 | 97
Cc1nn(C)cc1-c1ccc(CN2Cc3cccc(OCC45CCC(CC4)O5)c3C2=O)cc1 [Example 354, 2-(4-(1,3-dimethyl-1H-pyrazol-4-yl)benzyl)-7-((7-oxabicyclo[2.2.1]hept-1-yl)methoxy)isoindolin-1-one] | 270 | 93
Cc1cc(-c2ccc(CN3Cc4cccc(OCC5CCCO5)c4C3=O)cc2)cnn1 (stereo not drawn) [Example 356, 2-(4-(6-methylpyridazin-4-yl)benzyl)-7-((tetrahydrofuran-2-yl)methoxy)isoindolin-1-one] | 49 | 101
COc1cccc(F)c1Oc1nccc2c1C(=O)N(Cc1ccc(-c3cn(C)nc3C)cc1)C2 [Example 357, 2-(4-(1,3-dimethyl-1H-pyrazol-4-yl)benzyl)-4-(2-fluoro-6-methoxyphenoxy)-1,2-dihydro-3H-pyrrolo[3,4-c]pyridin-3-one] | 51 | 90
Cc1cc(-c2ccc(CN3Cc4ccnc(Oc5c(C)cc(F)cc5F)c4C3=O)cc2)cnn1 [Example 358, 4-(2,4-difluoro-6-methylphenoxy)-2-(4-(6-methylpyridazin-4-yl)benzyl)-1,2-dihydro-3H-pyrrolo[3,4-c]pyridin-3-one] | 77 | 91
Cc1cc(F)cc(F)c1Oc1nccc2c1C(=O)N(Cc1ccc(-c3ccn(C)n3)cc1)C2 [Example 359, 4-(2,4-difluoro-6-methylphenoxy)-2-(4-(1-methyl-1H-pyrazol-3-yl)benzyl)-1,2-dihydro-3H-pyrrolo[3,4-c]pyridin-3-one] | 93 | 96
COc1cccc(F)c1Oc1nccc2c1C(=O)N(Cc1ccc(-c3cnn(C)c3)cc1)C2 [Example 360, 4-(2-fluoro-6-methoxyphenoxy)-2-(4-(1-methyl-1H-pyrazol-4-yl)benzyl)-1,2-dihydro-3H-pyrrolo[3,4-c]pyridin-3-one] | 72 | 105
Cc1cc(-c2ccc(CN3Cc4ccnc(Oc5c(F)cc(F)cc5C5CC5)c4C3=O)cc2)cnn1 [Example 361, 4-(2-cyclopropyl-4,6-difluorophenoxy)-2-(4-(6-methylpyridazin-4-yl)benzyl)-1,2-dihydro-3H-pyrrolo[3,4-c]pyridin-3-one] | 76 | 100
Cn1ccc(-c2ccc(CN3Cc4ccnc(Oc5c(F)cc(F)cc5F)c4C3=O)cc2)n1 [Example 365, 2-(4-(1-methyl-1H-pyrazol-3-yl)benzyl)-4-(2,4,6-trifluorophenoxy)-1H-pyrrolo[3,4-c]pyridin-3(2H)-one] | 44 | 104
Cn1ccc(-c2ccc(CN3Cc4ncnc(Oc5c(F)cc(F)cc5F)c4C3=O)cc2)n1 [Example 366, 6-(4-(1-methyl-1H-pyrazol-3-yl)benzyl)-4-(2,4,6-trifluorophenoxy)-6,7-dihydro-5H-pyrrolo[3,4-d]pyrimidin-5-one] | 42 | 104
O=C1c2c(ncnc2Oc2c(F)cc(F)cc2F)CN1Cc1ccc(-c2ccnnc2)cc1 [Example 369, 6-(4-(pyridazin-4-yl)benzyl)-4-(2,4,6-trifluorophenoxy)-6,7-dihydro-5H-pyrrolo[3,4-d]pyrimidin-5-one] | 54 | 103
Cc1nn(C)cc1-c1ccc(CN2Cc3ncnc(Oc4c(F)cccc4F)c3C2=O)c(F)c1 [Example 372, 4-(2,6-difluorophenoxy)-6-(4-(1,3-dimethyl-1H-pyrazol-4-yl)-2-fluorobenzyl)-6,7-dihydro-5H-pyrrolo[3,4-d]pyrimidin-5-one] | 46 | 109
Cc1cc(-c2ccc(CN3Cc4ccnc(Oc5ccc(C#N)cc5F)c4C3=O)cc2)on1 [Example 373, 3-fluoro-4-((2-(4-(3-methyl-1,2-oxazol-5-yl)benzyl)-3-oxo-2,3-dihydro-1H-pyrrolo[3,4-c]pyridin-4-yl)oxy)benzonitrile] | 45 | 103

Stronger by EC50, values ahead:

EC50 [nM] | activity (%) at 10 μM [%] | Structure (SMILES)
12 | 104 | Cn1cc(-c2ccc(CN3Cc4ccnc(OC5c6ncccc6CC5(C)C)c4C3=O)cc2)cn1 (stereo not drawn) [Example 349, 4-((6,6-dimethyl-6,7-dihydro-5H-cyclopenta[b]pyridin-7-yl)oxy)-2-(4-(1-methyl-1H-pyrazol-4-yl)benzyl)-1,2-dihydro-3H-pyrrolo[3,4-c]pyridin-3-one]
30 | 98 | Cn1cc(-c2ccc(CN3Cc4ccnc(Oc5ccc(OC(F)(F)F)cc5F)c4C3=O)cc2)cn1 [Example 362, 4-(2-fluoro-4-(trifluoromethoxy)phenoxy)-2-(4-(1-methyl-1H-pyrazol-4-yl)benzyl)-1,2-dihydro-3H-pyrrolo[3,4-c]pyridin-3-one]
6.6 | 94 | Cn1cc(-c2ccc(CN3Cc4ccnc(Oc5ccc(OC(F)(F)F)cc5C#N)c4C3=O)cc2)cn1 [Example 363, 2-((2-(4-(1-methyl-1H-pyrazol-4-yl)benzyl)-3-oxo-2,3-dihydro-1H-pyrrolo[3,4-c]pyridin-4-yl)oxy)-5-(trifluoromethoxy)benzonitrile]
31 | 86 | N#Cc1cc(F)c(Oc2cccc3c2C(=O)N(Cc2ccc(-n4cccn4)cc2)C3)c(F)c1 [Example 364, 3,5-difluoro-4-((3-oxo-2-(4-(1H-pyrazol-1-yl)benzyl)-2,3-dihydro-1H-isoindol-4-yl)oxy)benzonitrile]
28 | 101 | Cc1cc(-c2ccc(CN3Cc4ncnc(Oc5c(F)cc(F)cc5F)c4C3=O)cc2)ccn1 [Example 367, 6-(4-(2-methylpyridin-4-yl)benzyl)-4-(2,4,6-trifluorophenoxy)-6,7-dihydro-5H-pyrrolo[3,4-d]pyrimidin-5-one]
10 | 99 | Cc1cc(-c2ccc(CN3Cc4ccnc(Oc5ccc(C#N)cc5F)c4C3=O)cc2)ccn1 [Example 368, 3-fluoro-4-((2-(4-(2-methylpyridin-4-yl)benzyl)-3-oxo-2,3-dihydro-1H-pyrrolo[3,4-c]pyridin-4-yl)oxy)benzonitrile]
14 | 97 | Cn1cc(-c2ccc(CN3Cc4ncnc(Oc5c(F)cc(F)cc5F)c4C3=O)cc2)nn1 [Example 370, 6-(4-(1-methyl-1H-1,2,3-triazol-4-yl)benzyl)-4-(2,4,6-trifluorophenoxy)-6,7-dihydro-5H-pyrrolo[3,4-d]pyrimidin-5-one]
13 | 99 | Cn1ccc(-c2ccc(CN3Cc4ncnc(Oc5ccc(C#N)cc5F)c4C3=O)cc2)n1 [Example 371, 3-fluoro-4-((6-(4-(1-methyl-1H-pyrazol-3-yl)benzyl)-5-oxo-6,7-dihydro-5H-pyrrolo[3,4-d]pyrimidin-4-yl)oxy)benzonitrile]
16 | 103 | Cn1ccc(-c2ccc(CN3Cc4ccnc(Oc5ccc(C#N)cc5F)c4C3=O)cc2)n1 [Example 374, 3-fluoro-4-((2-(4-(1-methyl-1H-pyrazol-3-yl)benzyl)-3-oxo-2,3-dihydro-1H-pyrrolo[3,4-c]pyridin-4-yl)oxy)benzonitrile]
10 | 99 | Cn1ccc(-c2ccc(CN3Cc4ccnc(Oc5c(F)cc(C#N)cc5F)c4C3=O)cc2)n1 [Example 375, 3,5-difluoro-4-((2-(4-(1-methyl-1H-pyrazol-3-yl)benzyl)-3-oxo-2,3-dihydro-1H-pyrrolo[3,4-c]pyridin-4-yl)oxy)benzonitrile]
6.9 | 106 | Cc1cc(-c2ccc(CN3Cc4ccnc(Oc5c(F)cc(C#N)cc5F)c4C3=O)cc2)ccn1 [Example 376, 3,5-difluoro-4-((2-(4-(2-methylpyridin-4-yl)benzyl)-3-oxo-2,3-dihydro-1H-pyrrolo[3,4-c]pyridin-4-yl)oxy)benzonitrile]
7.6 | 83 | Cn1cc(-c2ccc(CN3Cc4cccc(Oc5c(F)cc(C#N)cc5F)c4C3=O)nc2)cn1 [Example 377, 3,5-difluoro-4-((2-((5-(1-methyl-1H-pyrazol-4-yl)pyridin-2-yl)methyl)-3-oxo-2,3-dihydro-1H-isoindol-4-yl)oxy)benzonitrile]
33 | 98 | Cn1cc(-c2ccc(CN3Cc4cccc(Oc5c(F)cc(C#N)cc5F)c4C3=O)cn2)cn1 [Example 378, 3,5-difluoro-4-((2-((6-(1-methyl-1H-pyrazol-4-yl)pyridin-3-yl)methyl)-3-oxo-2,3-dihydro-1H-isoindol-4-yl)oxy)benzonitrile]
